Data published in US8969419B2, “Animal feed compositions and feeding methods” (priority 2009, dated 2015).

System: ruminal microbiota
Test: Analysis of ruminal samples from cattle fed hop beta acids or Rumensin
Type: in vivo
Details: Rumensin 300 mg/day; for Lactate Concentration, % differ from Control / Isobutyrate Concentration, % differ from Control / Isovalerate Concentration, % differ from Control / Valerate Concentration, % differ from Control / Butyrate Concentration, % differ from Control / Propionate Concentration, % differ from Control / Acetate Concentration, % differ from Control / Total VFA Concentration, % differ from Control: rumen fluid; for Lactate Concentration, % differ from Control / Isobutyrate Concentration, % differ from Control / Isovalerate Concentration, % differ from Control / Valerate Concentration, % differ from Control / Butyrate Concentration, % differ from Control / Propionate Concentration, % differ from Control / Acetate Concentration, % differ from Control / Total VFA Concentration, % differ from Control / Ruminal Ammonia Concentration, % differ from Control / Ruminal Acetate:Propionate Ratio, % differ from Control: β-acids averaged over five levels; for Ruminal pH, % differ from Control: β-acids averaged over five levels (10-300 mg/day)
Procedure: Background: Cattle were fed concentrate-based diets and were administered beta acids of hops (0, 10, 80, 160, 240, or 300 mg/day) or Rumensin (300 mg/day) to determine effects of the additives on ruminal microbiota. Rumen samples were periodically taken and pH, acetate, propionate, butyrate isobutyrate, valerate isovalerate, and total volatile fatty acid (VFA) concentrations were measured. Materials and Methods: A 10% beta acids solution (standard aqueous alkaline solution of beta acids) was subjected to dilution. Dilutions of the 10% beta acids solution were prepared (with water and KOH additions) such that solutions were prepared that contained the proper amount of beta acids (per ml) to provide proper cattle dose in 30 ml total volume (e.g. a solution was prepared that had 10 mg/30 ml (pH of 10.5) and was used to treat the 10 mg/steer/day group; another solution was prepared that had 80 mg/30 ml (pH 10.5) and was used to treat the 80 mg/steer/day group). Each animal was treated with it appropriate 30 ml of solution, once per day. A subset of ruminal fluid samples representing each of the seven treatment groups (control, five levels of beta acids and Rumensin). The beta acid levels were 10, 80 and 160, 240 and 300 mg/animal daily. The rumen fluid sampling was performed at prescribed intervals following feeding. Rumen samples were analyzed using standard accepted methodologies, and concentrations of parameters of interest determined. Results: Described in Tables I through XI are the averaged results from the 24 hour feeding period (i.e. average of analysis results for each parameter, complied from samples taken and analyzed over the course of the 24 hour feeding period) for: the control animals, the animals receiving beta acids treatments (average value at all five levels), and Rumensin treated animals. The Tables provide the maximum, minimum and average values observed. The beta acids (β-acids) and Rumensin values are reported as a percentage of the control. Positive percentage values mean that the treatment (beta acids or Rumensin) exceeded the control by the specified amount (negative values less than control by specified amount.

CCC1(C2OC(C3OC(O)(CO)C(C)CC3C)CC2C)CCC(C2(C)CCC3(CC(O)C(C)C(C(C)C(OC)C(C)C(=O)O)O3)O2)O1 (stereo not drawn) [Rumensin, 4-[2-[5-ethyl-5-[5-[6-hydroxy-6-(hydroxymethyl)-3,5-dimethyl-oxan-2-yl]-3-methyl-oxolan-2-yl]oxolan-2-yl]-9-hydroxy-2,8-dimethyl-1,6-dioxaspiro[4.5]dec-7-yl]-3-methoxy-2-methyl-pentanoic acid]
Lactate Concentration, % differ from Control (Ave over 24 hrs of feeding, control 0.6 mM): 10.2%
Isobutyrate Concentration, % differ from Control (Ave over 24 hrs of feeding, control 0.79 mM): 6.84%
Isovalerate Concentration, % differ from Control (Ave over 24 hrs of feeding, control 1.25 mM): 33.4%
Valerate Concentration, % differ from Control (Ave over 24 hrs of feeding, control 3.06 mM): 31.7%
Butyrate Concentration, % differ from Control (Ave over 24 hrs of feeding, control 9.3 mM): 0.6%
Propionate Concentration, % differ from Control (Ave over 24 hrs of feeding, control 29 mM): 27.9%
Acetate Concentration, % differ from Control (Ave over 24 hrs of feeding, control 38 mM): 9%
Total VFA Concentration, % differ from Control (Ave over 24 hrs of feeding, control 82 mM): 14.9%
Ruminal Ammonia Concentration, % differ from Control (Ave over 24 hrs of feeding, control 3.4 mM): −54.1%
Ruminal Acetate:Propionate Ratio, % differ from Control (Ave over 24 hrs of feeding, control A:P ratio 1.50): −20.4%
Ruminal pH, % differ from Control (Ave value over 24 hrs of feeding, control pH 5.69): −4.45%
Isobutyrate Concentration, % differ from Control (Max over 24 hrs of feeding, control 1.00 mM): 5.00%
Isovalerate Concentration, % differ from Control (Max over 24 hrs of feeding, control 1.81 mM): 26.0%
Lactate Concentration, % differ from Control (Max over 24 hrs of feeding, control 3.0 mM): 66.7%
Valerate Concentration, % differ from Control (Max over 24 hrs of feeding, control 3.80 mM): 39.5%
Butyrate Concentration, % differ from Control (Max over 24 hrs of feeding, control 12.6 mM): −8.7%
Propionate Concentration, % differ from Control (Max over 24 hrs of feeding, control 40 mM): 12.5%
Acetate Concentration, % differ from Control (Max over 24 hrs of feeding, control 49 mM): −2%
Total VFA Concentration, % differ from Control (Max over 24 hrs of feeding, control 107 mM): 0.9%
Ruminal Ammonia Concentration, % differ from Control (Max over 24 hrs of feeding, control 7.2 mM): −41.7%
Ruminal Acetate:Propionate Ratio, % differ from Control (Max over 24 hrs of feeding, control A:P ratio 1.73): 4.0%
Ruminal pH, % differ from Control (Max value over 24 hrs of feeding, control pH 6.60): −5.45%
Lactate Concentration, % differ from Control (Min over 24 hrs of feeding, control 0.2 mM): 0.0%
Isobutyrate Concentration, % differ from Control (Min over 24 hrs of feeding, control 0.57 mM): 17.54%
Isovalerate Concentration, % differ from Control (Min over 24 hrs of feeding, control 0.88 mM): 50.0%
Valerate Concentration, % differ from Control (Min over 24 hrs of feeding, control 1.9 mM): 36.8%
Butyrate Concentration, % differ from Control (Min over 24 hrs of feeding, control 6.6 mM): −75.8%
Propionate Concentration, % differ from Control (Min over 24 hrs of feeding, control 18 mM): 22.2%
Acetate Concentration, % differ from Control (Min over 24 hrs of feeding, control 28 mM): 11%
Total VFA Concentration, % differ from Control (Min over 24 hrs of feeding, control 57 mM): 14.0%
Ruminal Ammonia Concentration, % differ from Control (Min over 24 hrs of feeding, control 0.7 mM): −54.3%
Ruminal Acetate:Propionate Ratio, % differ from Control (Min over 24 hrs of feeding, control A:P ratio 1.30): −25.4%
Ruminal pH, % differ from Control (Min value over 24 hrs of feeding, control pH 5.18): −2.70%
